Source: patent US9012507B2, “Lipid-lowering antidiabetic agent” (Thetis Pharmaceuticals LLC, priority 2011, dated 2015)

Key:
physchem = test: physchem
Description: Measurement of the water solubility of the test compounds is accomplished by using methods well known to those skilled in the art. […] The total volume of the solution is measured. […] This is a clear indication of an unexpectedly high degree of bioavailability of the compositions of the invention. Highly water soluble medicinal preparations, when administered orally, result in efficient absorption of such preparations from the gastrointestinal tract into systemic circulation. Such preparations permit rapid absorption into the blood stream resulting in a high concentration of the active agent in the blood. Furthermore, water soluble preparations are especially suitable for parenteral administration, for example, intravenous administration.

[1] = Air and light sensitivity observed on isolation and storage; assay type: physicochemical; settings: isolated solid; therefore stored in an amber vial under nitrogen
Description: The reaction flask was covered in foil to protect it from light. After stirring for 1 h at room temperature, the mixture was chilled to 0° C. for 1 h, and then filtered under an atmosphere of nitrogen. The solid was washed with 50 mL ice-cold acetonitrile and then quickly transferred to a foil-covered round bottom flask and placed under high vac.

| SMILES | solubility (physchem; water, thermodynamic from solid) [µg/mL] | times more soluble in water than EPA (physchem; ratio of water solubility versus EPA itself) [times] | sensitivity to air and light [1] |
| --- | --- | --- | --- |
| CC/C=C\C/C=C\C/C=C\C/C=C\C/C=C\CCCC(=O)O [EPA, (5Z,8Z,11Z,14Z,17Z)-eicosa-5,8,11,14,17-pentaenoic acid, reference compound] | < 200 | – | – |
| CC/C=C\C/C=C\C/C=C\C/C=C\C/C=C\CCCC(=O)O.CN(C)C(=N)NC(=N)N [Example 1, {[Amino(imino)methyl]amino}(dimethylamino)methaniminium (5Z,8Z,11Z,14Z,17Z)-eicosa-5,8,11,14,17-pentaenoate] | – | ≥ 250 | air and light sensitive |
